Experimental data reported in patent US20010053796A1, “Delta-aminolevulinic acid for prevention and treatment of infection microorganisms and parasite” (priority 2000, published 2001).

How the values were obtained:
[1] = test system: Bastardhalibut; assay: Breeding before Scutica artificial infection (mortality during cultivation); conditions: oral (100 ppm per feed 1 kg), 1˜3 weeks
From the text: 20 flatfish of about 25 g were set into 2 groups and 1 control group and cultivated in circulatory filtering system. In group 1, they were cultivated for 1˜3 weeks, maintaining the concentration of δ-aminolevulinic acid at 0.01˜50 ppm by administering δ-aminolevulinic acid once every 3 days to the cultivating water. In group 2, they were cultivated for 1˜3 weeks by administering δ-aminolevulinic acid solution, which was nebulized at the concentration of 0.1˜100 ppm and for artificial assorted feed (EP, fish body weight 3%: 15 g) 1 kg, and dried. In group 1 and the non-treated group, artificial assorted feed on the market with the same amount of feed of group 2 was used without δ-aminolevulinic acid treatment. […] The water temperature was maintained at 20° C. (±2° C.) throughout the experiment.

[2] = test system: Pseudomonas sp.; assay: Prevention effect for artificial infection (abdominal injection of bacteria); type: in vivo, Bastardhalibut; conditions: for Mortality during Cultivation: dead of 20 fish
Procedure: (§1) The water temperature was maintained at 20° C. (±2° C. ) throughout the experiment.
(§2) As the same method of above Experiment 1, fishes of both control group and experiment group were prepared and artificially infected by direct abdominal injection of Edwardsiella tarda 10^5 CFU per 1 fish. Each experimental fish was moved to fish tanks for monitoring and monitored for mortality according to infection for 2 weeks and viability after 2 weeks.
(§3) Bastardhalibut and Sebastes schlegeli were infected by Pseudomonas sp. through abdominal injection with the same method of fish breeding; δ-aminolevulinic acid treatment and artificial infection carried out in Experiment 1 and 2. Each experimental fish was moved to fish tanks for monitoring and monitored for mortality according to infection for 2 weeks.

[3] = test system: Pseudomonas sp.; assay: as above; type: in vivo, Sebastes schlegeli; conditions: for Mortality during Cultivation: dead of 20 fish
Procedure: as §1, §2, §3

[4] = test system: Vibrio anguillarum; assay: as above; type: in vivo, Sebastes schlegeli; conditions: for Mortality during Cultivation: dead of 20 fish
Procedure: as §1, §2
Bastardhalibut and Sebastes schlegeli were infected by Vibrio anguillarum through abdominal injection with the same method of fish breeding; δ-aminolevulinic acid treatment and artificial infection carried out in Experiment 1 and 2.

[5] = test system: Staphylococcus sp.; assay: Treatment effect of infected fry by digestion in breeding water; type: in vivo, Bastardhalibut; conditions: 50 fish
Procedure: To be used as experimental fish in this example, fry of Bastardhalibut and Sebastes schlegeli (mean body weight 2 g), 50 per each breeding tank, were preliminary-bred for 1 week and stabilized. […] The artificial infection methods were carried out by the digestion method. Pathogenic organisms were applied into fish tanks and digested in seawater, wherein the concentration of organisms has adjusted to 10^4 CFU/mL for an hour, and infected. Treatment conditions are as follows. After artificial infection. Infected fishes were moved to fish tanks and kept in the infection period for 3 days. On the fourth day of infection, 0.1, 1.0, 5 and 10 ppm δ-aminolevulinic acid were introduced to use as breeding water. Fish was bred in aerobic condition for 1˜24 hours without exchanging water and then, bred for 2 weeks after exchanging with clean seawater. Then, they were monitored to check for the mortality of fish according to infection. In the control groups, after each bacteria were identically introduced through the digestion method, mortality of Bastardhalibut and Sebastes schlegeli according to bacteria infection was identified while breeding with non-treated condition of δ-aminolevulinic acid. As a result of this experiment, δ-aminolevulinic acid-treated groups have shown high viability in both Bastardhalibut (Table 12˜Table 15) and Sebastes schlegeli (Table 16˜Table 19).

[6] = test system: Scutica; assay: Prevention effect for Scutica artificial infection of fish body in vivo; conditions: for Mortality during Cultivation: fish number 20
Procedure: The water temperature was maintained at 20° C. (±2° C.) throughout the experiment.

[7] = orally, 1.0 ppm in feed, Bastardhalibut
[8] = orally, 10 ppm in feed, Bastardhalibut
[9] = orally, 100 ppm in feed, Bastardhalibut
[10] = to fish tanks, 0.01 ppm, Bastardhalibut
[11] = to fish tanks, 0.1 ppm, Bastardhalibut
[12] = to fish tanks, 1.0 ppm, Bastardhalibut
[13] = orally, 1.0 ppm in feed, Sebastes schlegeli
[14] = orally, 10 ppm in feed, Sebastes schlegeli
[15] = orally, 100 ppm in feed, Sebastes schlegeli
[16] = to fish tanks, 0.01 ppm, Sebastes schlegeli
[17] = to fish tanks, 0.1 ppm, Sebastes schlegeli
[18] = to fish tanks, 1.0 ppm, Sebastes schlegeli
[19] = Administration to fish tanks, 0.01 ppm, Bastardhalibut
[20] = Administration to fish tanks, 0.01 ppm, Sebastes schlegeli
[21] = Administration to fish tanks, 0.1 pm, Bastardhalibut
[22] = Administration to fish tanks, 0.1 pm, Sebastes schlegeli
[23] = Administration to fish tanks, 1.0 ppm, Bastardhalibut
[24] = Administration to fish tanks, 1.0 ppm, Sebastes schlegeli
[25] = Administration to fish tanks, 5.0 ppm, Bastardhalibut
[26] = Administration to fish tanks, 5.0 ppm, Sebastes schlegeli
[27] = Administration to fish tanks, 10 ppm, Bastardhalibut
[28] = Administration to fish tanks, 10 ppm, Sebastes schlegeli
[29] = Administration to fish tanks, 50 ppm, Bastardhalibut
[30] = Administration to fish tanks, 50 ppm, Sebastes schlegeli
[31] = Oral Adminstration, 0.1 ppm, Bastardhalibut
[32] = Oral Adminstration, 0.1 ppm, Sebastes schlegeli
[33] = Oral Adminstration, 1.0 ppm, Bastardhalibut
[34] = Oral Adminstration, 1.0 ppm, Sebastes schlegeli
[35] = Oral Adminstration, 5 ppm, Bastardhalibut
[36] = Oral Adminstration, 5 ppm, Sebastes schlegeli
[37] = Oral Adminstration, 10 ppm, Bastardhalibut
[38] = Oral Adminstration, 10 ppm, Sebastes schlegeli
[39] = Oral Adminstration, 50 ppm, Bastardhalibut
[40] = Oral Adminstration, 50 ppm, Sebastes schlegeli
[41] = Oral Adminstration, 100 ppm, Bastardhalibut
[42] = Oral Adminstration, 100 ppm, Sebastes schlegeli

`NCC(=O)CCC(=O)O` [δ-aminolevulinic acid] was tested, and the Viability [1] was 100%, the “Mortality during Cultivation” value ([1]; dead of 20 fish) was 0 and the Viability ([2]; orally, 0.1 ppm in feed) was 60%. The “Mortality during Cultivation” value ([2]; orally, 0.1 ppm in feed) was 8, the Viability [2, 7] was 55% and the “Mortality during Cultivation” value [2, 7] was 9. The Viability [2, 8] was 90%, the “Mortality during Cultivation” value [2, 8] was 2 and the Viability [2, 9] was 90%. The “Mortality during Cultivation” value [2, 9] was 2, the Viability [2, 10] was 60% and the “Mortality during Cultivation” value [2, 10] was 8. The Viability [2, 11] was 70%, the “Mortality during Cultivation” value [2, 11] was 6 and the Viability [2, 12] was 90%. For the same compound, the “Mortality during Cultivation” value [2, 12] was 2, the Viability ([2]; to fish tanks, 10 ppm) was 90% and the “Mortality during Cultivation” value ([2]; to fish tanks, 10 ppm) was 2. The Viability ([3]; orally, 0.1 ppm in feed) was 60%, the “Mortality during Cultivation” value ([3]; orally, 0.1 ppm in feed) was 8 and the Viability [3, 13] was 60%. The “Mortality during Cultivation” value [3, 13] was 8, the Viability [3, 14] was 85% and the “Mortality during Cultivation” value [3, 14] was 3. For the same compound, the Viability [3, 15] was 85%, the “Mortality during Cultivation” value [3, 15] was 3 and the Viability [3, 16] was 55%. The “Mortality during Cultivation” value [3, 16] was 9, the Viability [3, 17] was 55% and the “Mortality during Cultivation” value [3, 17] was 9. The Viability [3, 18] was 85%, the “Mortality during Cultivation” value [3, 18] was 3 and the Viability ([3]; to fish tanks, 10 ppm) was 90%. The “Mortality during Cultivation” value ([3]; to fish tanks, 10 ppm) was 2, the Viability ([4]; orally, 0.1 ppm in feed) was 60% and the “Mortality during Cultivation” value ([4]; orally, 0.1 ppm in feed) was 8. The Viability ([4]; orally, 1.0 ppm in feed) was 65%, the “Mortality during Cultivation” value ([4]; orally, 1.0 ppm in feed) was 7 and the Viability ([4]; orally, 10 ppm in feed) was 80%. For the same compound, the “Mortality during Cultivation” value ([4]; orally, 10 ppm in feed) was 4, the Viability ([4]; orally, 100 ppm in feed) was 90% and the “Mortality during Cultivation” value ([4]; orally, 100 ppm in feed) was 2. For the same compound, the Viability ([4]; to fish tanks, 0.01 ppm) was 60%, the “Mortality during Cultivation” value ([4]; to fish tanks, 0.01 ppm) was 8 and the Viability ([4]; to fish tanks, 0.1 ppm) was 60%. For the same compound, the “Mortality during Cultivation” value ([4]; to fish tanks, 0.1 ppm) was 8, the Viability ([4]; to fish tanks, 1.0 ppm) was 85% and the “Mortality during Cultivation” value ([4]; to fish tanks, 1.0 ppm) was 1. For the same compound, the Viability ([4]; to fish tanks, 10 ppm) was 90%, the “Mortality during Cultivation” value ([4]; to fish tanks, 10 ppm) was 2 and the Viability ([5]; digestion 0.1 ppm from 4th day of infection, Bastard halibut fry) was 54%. It also gave a Viability ([5]; digestion 1.0 ppm from 4th day of infection, Bastardhalibut fry) of 66%, a Viability ([5]; digestion 5.0 ppm from 4th day of infection) of 84% and a Viability ([5]; digestion 10 ppm from 4th day of infection, Bastardhalibut fry) of 84%. For the same compound, the “Viablity (%)” value [6, 19] was 60%, the “Mortality during Cultivation” value [6, 19] was 8 and the “Viablity (%)” value [6, 20] was 60%. For the same compound, the “Mortality during Cultivation” value [6, 20] was 8, the “Viablity (%)” value [6, 21] was 75% and the “Mortality during Cultivation” value [6, 21] was 7. The “Viablity (%)” value [6, 22] was 60%, the “Mortality during Cultivation” value [6, 22] was 8 and the “Viablity (%)” value [6, 23] was 75%. The “Mortality during Cultivation” value [6, 23] was 5, the “Viablity (%)” value [6, 24] was 70% and the “Mortality during Cultivation” value [6, 24] was 6. For the same compound, the “Viablity (%)” value [6, 25] was 85%, the “Mortality during Cultivation” value [6, 25] was 3 and the “Viablity (%)” value [6, 26] was 85%. The “Mortality during Cultivation” value [6, 26] was 3, the “Viablity (%)” value [6, 27] was 85% and the “Mortality during Cultivation” value [6, 27] was 3. The “Viablity (%)” value [6, 28] was 85%, the “Mortality during Cultivation” value [6, 28] was 3 and the “Viablity (%)” value [6, 29] was 80%. For the same compound, the “Mortality during Cultivation” value [6, 29] was 4, the “Viablity (%)” value [6, 30] was 80% and the “Mortality during Cultivation” value [6, 30] was 4. The “Viablity (%)” value [6, 31] was 70%, the “Mortality during Cultivation” value [6, 31] was 6 and the “Viablity (%)” value [6, 32] was 65%. For the same compound, the “Mortality during Cultivation” value [6, 32] was 7, the “Viablity (%)” value [6, 33] was 70% and the “Mortality during Cultivation” value [6, 33] was 6. For the same compound, the “Viablity (%)” value [6, 34] was 75%, the “Mortality during Cultivation” value [6, 34] was 5 and the “Viablity (%)” value [6, 35] was 85%. For the same compound, the “Mortality during Cultivation” value [6, 35] was 3, the “Viablity (%)” value [6, 36] was 85% and the “Mortality during Cultivation” value [6, 36] was 3. For the same compound, the “Viablity (%)” value [6, 37] was 95%, the “Mortality during Cultivation” value [6, 37] was 1 and the “Viablity (%)” value [6, 38] was 95%. For the same compound, the “Mortality during Cultivation” value [6, 38] was 1, the “Viablity (%)” value [6, 39] was 95% and the “Mortality during Cultivation” value [6, 39] was 1. For the same compound, the “Viablity (%)” value [6, 40] was 95%, the “Mortality during Cultivation” value [6, 40] was 1 and the “Viablity (%)” value [6, 41] was 90%. For the same compound, the “Mortality during Cultivation” value [6, 41] was 2, the “Viablity (%)” value [6, 42] was 95% and the “Mortality during Cultivation” value [6, 42] was 1.
